# Active and inactive are the calls of the source. No cut-off for these calls is given here.
# Legend:
# [1] = system: Human betaherpesvirus 5; test: Antiviral activity against HCMV infected in HFF after 3 days by neutral red dye-based plaque reduction assay; assay type: functional, organism-based; conditions: Human betaherpesvirus 5, 72 h
# [2] = Cytotoxicity against HFF; assay type: cell-based; conditions: human, HFF cells
# [3] = system: Hepatitis B virus; test: Antiviral activity against HBV infected in human HepG22.2.15 cells after 3 days by neutral red dye-based plaque reduction assay; assay type: functional, organism-based; conditions: HepG2 2.2.15, 72 h
# [4] = Cytotoxicity against human […] cells; assay type: cell-based
# [5] = system: Rift Valley fever virus; test: Antiviral activity against Rift Valley fever virus infected in African green monkey Vero 76 cells after 3 days by neutral red dye-based plaque reduction assay; assay type: functional, organism-based; conditions: for IC50: 72 h
# [6] = system: Venezuelan equine encephalitis virus; test: Antiviral activity against Venezuelan equine encephalitis virus infected in African green monkey Vero cells after 3 days by neutral red dye-based plaque reduction assay; assay type: functional, organism-based
# [7] = system: Respiratory syncytial virus; test: Antiviral activity against Respiratory syncytial virus infected in human HeLa cells after 3 days by neutral red dye-based plaque reduction assay; assay type: functional, organism-based
# [8] = system: Respiratory syncytial virus; test: Antiviral activity against Respiratory syncytial virus infected in monkey MA104 cells after 3 days by neutral red dye-based plaque reduction assay; assay type: functional, organism-based
# [9] = Cytotoxicity against MDCK cells relative to control; assay type: cell-based, Canis lupus familiaris; conditions: dog
# [10] = Inhibition of rabbit erythrocytic AdoHcy hydrolase using AdoHcy as substrate assessed as formation of L-homocysteine preincubated for 5 mins followed by substrate addition measured after 1 hr by thiol quantitation reagent-based assay; parameters: species or system Oryctolagus cuniculus
# [11] = system: Enterovirus; test: Antiviral activity against Rhinovirus infected in human HeLa Ohio-1 cells after 3 days by neutral red dye-based plaque reduction assay; assay type: functional, organism-based
# [12] = system: MA104; test: Antiviral activity against Parainfluenza virus infected in monkey MA104 cells after 3 days by neutral red dye-based plaque reduction assay; assay type: functional, cell-based; conditions: Paramyxoviridae
# [13] = system: Cowpox virus; test: Antiviral activity against Cowpox virus infected in HFF after 3 days by neutral red dye-based plaque reduction assay; assay type: functional, organism-based
# [14] = Cytotoxicity against MDCK cells; assay type: cell-based, Canis lupus familiaris; conditions: dog, MDCK cells
# [15] = system: HEL; test: Cytotoxicity against HEL cells; assay type: cell-based; conditions: human
# [16] = Selectivity index, ratio of CC50 for MDCK cells to IC50 for Influenza A virus H5N1 virus; assay type: functional
# [17] = system: Tacaribe virus; test: Antiviral activity against Tacaribe virus infected in African green monkey Vero 76 cells after 3 days by neutral red dye-based plaque reduction assay; assay type: functional, organism-based; conditions: Mammarenavirus tacaribeense; for IC50: 72 h
# [18] = system: Dengue virus; test: Antiviral activity against Dengue virus infected in African green monkey Vero cells after 3 days by neutral red dye-based plaque reduction assay; assay type: functional, organism-based; conditions: for IC50: 72 h
# [19] = Cytotoxicity against monkey MA104 cells; assay type: cell-based, Macaca mulatta; conditions: rhesus monkey
# [20] = Cytotoxicity against human HeLa Ohio-1 cells; assay type: cell-based
# [21] = Selectivity index, ratio of CC50 for HFF to IC50 for HCMV; assay type: functional
# [22] = Cytotoxicity against African green monkey Vero cells; assay type: cell-based; conditions: chlorocebus sabaeus, Vero cells
# [23] = Cytotoxicity against African green monkey Vero E6 cells; assay type: cell-based; conditions: chlorocebus sabaeus
# [24] = system: SARS-CoV; test: Antiviral activity against SARS coronavirus infected in African green monkey Vero E6 cells after 3 days by neutral red dye-based plaque reduction assay; assay type: functional, organism-based; conditions: Severe acute respiratory syndrome-related coronavirus
# [25] = Selectivity index, ratio of CC50 for African green monkey Vero 76 cells to IC50 for Tacaribe virus; assay type: functional
# [26] = system: Influenza A virus; test: Antiviral activity against Influenza A virus H5N1 infected in MDCK cells after 3 days by neutral red dye-based plaque reduction assay; assay type: functional, organism-based; conditions: 72 h
# [27] = Selectivity index, ratio of CC50 for MDCK cells to IC50 for Influenza B virus; assay type: functional
# [28] = Cytotoxicity against African green monkey Vero 76 cells relative to control; assay type: cell-based; conditions: chlorocebus sabaeus
# [29] = system: Influenza A virus; test: Antiviral activity against Influenza A virus H1N1 infected in MDCK cells after 3 days by neutral red dye-based plaque reduction assay; assay type: functional, organism-based
# [30] = system: Influenza B virus; test: Antiviral activity against Influenza B virus infected in MDCK cells after 3 days by neutral red dye-based plaque reduction assay; assay type: functional, organism-based; conditions: 72 h
# [31] = system: West Nile virus; test: Antiviral activity against WNV infected in African green monkey Vero 76 cells after 3 days by neutral red dye-based plaque reduction assay; assay type: functional, organism-based
# [32] = Selectivity index, ratio of CC50 for African green monkey Vero cells to IC50 for Yellow fever virus; assay type: functional
# [33] = system: A549; test: Cytotoxicity against human A549 cells; assay type: cell-based
# [34] = system: Yellow fever virus; test: Antiviral activity against Yellow fever virus infected in African green monkey Vero cells after 3 days by neutral red dye-based plaque reduction assay; assay type: functional, organism-based; conditions: 72 h
# [35] = system: unidentified adenovirus; test: Antiviral activity against Adenovirus infected in human A549 cells after 3 days by neutral red dye-based plaque reduction assay; assay type: functional, organism-based
# [36] = system: Vaccinia virus; test: Antiviral activity against Vaccinia virus infected in HEL cells after 3 days by neutral red dye-based plaque reduction assay; assay type: functional, organism-based; conditions: Orthopoxvirus vaccinia
# [37] = Cytotoxicity against African green monkey Vero cells relative to control; assay type: cell-based; conditions: chlorocebus sabaeus
# [38] = system: Influenza A virus; test: Antiviral activity against Influenza A virus H3N2 infected in MDCK cells after 3 days by neutral red dye-based plaque reduction assay; assay type: functional, organism-based
# [39] = system: HeLa; test: Cytotoxicity against human HeLa cells; assay type: cell-based
# [40] = Cytotoxicity against African green monkey Vero 76 cells; assay type: cell-based; conditions: chlorocebus sabaeus; for CC50: Vero 76 cells
# [41] = Cytotoxicity against African green monkey CV1 cells; assay type: cell-based, CV-1; conditions: chlorocebus aethiops
# [42] = system: Measles morbillivirus; test: Antiviral activity against Measles virus infected in African green monkey CV1 cells after 3 days by neutral red dye-based plaque reduction assay; assay type: functional, organism-based; conditions: CV-1, 72 h
# [43] = Selectivity index, ratio of CC50 for African green monkey CV1 cells to IC50 for Measles virus; assay type: functional, CV-1
# [44] = system: Hepatitis C virus; test: Antiviral activity against Hepatitis C virus infected in human Ava5 cells after 3 days by neutral red dye-based plaque reduction assay; assay type: functional, organism-based; conditions: Hepacivirus hominis
# [45] = Cytotoxicity against human Ava5 cells; assay type: cell-based
# [46] = Selectivity index, ratio of CC50 for African green monkey Vero 76 cells to IC50 for Rift Valley fever virus; assay type: functional
# [47] = Selectivity index, ratio of CC50 for African green monkey Vero cells to IC50 for Dengue virus; assay type: functional
Compound,IC50 [1],CC50 [2],IC50 [5],Activity [6],Activity [7],Activity [8],CC50 [9],IC50 [10],Activity [15],IC50 [17],Activity [19],CC50 [22],CC50 [28],IC50 [30],Activity [31],IC50 [34],Activity [36],Activity [39],CC50 [40],also measured
Nc1nc2c(ncn2COC(CO)CO)c(=O)[nH]1 [GANCICLOVIR],3.6 µM,> 100 µM,–,–,–,–,–,–,–,–,–,–,–,–,–,–,–,–,–,–
Nc1ccn([C@@H]2CS[C@H](CO)O2)c(=O)n1 [LAMIVUDINE],–,–,–,–,–,–,–,–,–,–,–,–,–,–,–,–,–,–,–,IC50 [3]: 0.039 µM; CC50 [4]: 2180 µM
Cc1cnc(N)c2ncn([C@@H]3C=C(CO)[C@@H](O)[C@H]3O)c12,6.4 µM,247 µM,> 36 µM,inactive,inactive,inactive,> 362 µM,0.041 µM,Non-toxic,1.2 µM,Non-toxic,> 362 µM,83.3 µM,1.1 µM,inactive,3.6 µM,inactive,Non-toxic,36 µM,Activity [11]: inactive; Activity [12]: inactive; Activity [13]: inactive; CC50 [14]: 250 µM; Ratio CC50/IC50 [16]: 3.3; IC50 [18]: > 228 µM; Activity [20]: Non-toxic; Ratio CC50/IC50 [21]: 38.6; Activity [23]: Non-toxic; Activity [24]: inactive; Ratio CC50/IC50 [25]: 72; IC50 [26]: 76 µM; Ratio CC50/IC50 [27]: >320; Activity [29]: inactive; Ratio CC50/IC50 [32]: >100; Activity [33]: Non-toxic; Activity [35]: inactive; CC50 [37]: 228 µM; Activity [38]: inactive
Nc1cc2nc[nH]c2c(=O)[nH]1 [DEZAGUANINE],–,–,–,–,–,–,–,–,–,–,–,–,–,–,–,–,–,–,–,CC50 [41]: 250 µM; IC50 [42]: 4.1 µM
NC(=O)c1ncn([C@@H]2O[C@H](CO)[C@@H](O)[C@H]2O)n1 [RIBAVIRIN],–,–,37.3 µM,–,–,–,> 100 µM,–,–,26.7 µM,–,–,> 1000 µM,9 µM,–,–,–,–,> 1000 µM,–
Nc1nc(F)cc2c1ncn2[C@@H]1C[C@H](CO)[C@@H](O)[C@H]1O,–,–,–,inactive,inactive,inactive,–,3.32 µM,Non-toxic,–,Non-toxic,> 355 µM,–,–,inactive,2.1 µM,inactive,Non-toxic,–,Activity [5]: inactive; Ratio CC50/IC50 [43]: >37; CC50 [41]: > 355 µM; Activity [44]: inactive; Activity [17]: inactive; Activity [18]: inactive; IC50 [42]: 9.6 µM; Activity [45]: Non-toxic; Ratio CC50/IC50 [32]: >170; Activity ([40]; vero 76): Non-toxic
Nc1ncc(F)c2c1ncn2[C@@H]1C=C(CO)[C@@H](O)[C@H]1O,0.3 µM,> 300 µM,6.4 µM,inactive,inactive,inactive,> 357 µM,0.0068 µM,Non-toxic,< 0.36 µM,Non-toxic,224 µM,114 µM,< 0.36 µM,inactive,> 224 µM,inactive,Non-toxic,36 µM,Activity [11]: inactive; Activity [12]: inactive; Activity [13]: inactive; CC50 [14]: 32.5 µM; Ratio CC50/IC50 [16]: 34; Ratio CC50/IC50 [46]: 5.6; IC50 [18]: 7.1 µM; Activity [20]: Non-toxic; Ratio CC50/IC50 [21]: > 1040; Activity [23]: Non-toxic; Activity [24]: inactive; Ratio CC50/IC50 [25]: >317; IC50 [26]: 1 µM; Ratio CC50/IC50 [27]: >1000; Ratio CC50/IC50 [47]: 5; Activity [29]: inactive; Activity [33]: Non-toxic; Activity [35]: inactive; CC50 [37]: 35.7 µM; Activity [38]: inactive
